Experimental data taken from ChEMBL document CHEMBL1127553, “Derivatives of a novel cyclopeptolide. 2. Synthesis, activity against multidrug resistance in CHO and KB cells in vitro, and structure-activity relationships” (1994).

Columns and labels:
Format in all cases: functional, Cricetulus griseus
CHO [1] = assay: The sensitizing capacity for colchicine treatment of multi drug resistance (MDR) CHO cell at concentration 1.0(mg/L).
CHO [2] = assay: The sensitizing capacity for colchicine treatment of multi drug resistance(MDR) in CHO cell at concentration 0.1(mg/L).
CHO [3] = assay: Sensitization of colchicine treated parental (PAR)CHO cells, measured at concentration 0.1(mg/L)
CHO [4] = assay: The sensitizing capacity for colchicine treatment of parental (PAR)CHO cells at concentration 1.0 (mg/L)

CC[C@@H](C)[C@H]1C(=O)NCC(=O)N(C)[C@@H](C(C)C)C(=O)N[C@@H](Cc2ccc(OC)cc2)C(=O)O[C@H](C)C(=O)N2CCCC[C@H]2C(=O)N(C)[C@@H](C(C)C)C(=O)N[C@@H](C(C)C)C(=O)N(C)[C@H](CC(=O)N[C@H](CO)C(C)C)C(=O)N(C)[C@@H]([C@@H](C)CC)C(=O)N1C
Activity (CHO [1]): 144 | Activity (CHO [2]): 3.2 | Activity (CHO [3]): 7.6 | Activity (CHO [4]): 9.8

CC[C@H](C)[C@H]1C(=O)NCC(=O)N(C)[C@@H](C(C)C)C(=O)N[C@@H](Cc2ccc(OC)cc2)C(=O)O[C@H](C)C(=O)N2CCCC[C@H]2C(=O)N(C)[C@@H](C(C)C)C(=O)N[C@@H](C(C)C)C(=O)N(C)[C@@H](CC(=O)OCCC(C)(C)C)C(=O)N(C)[C@@H]([C@@H](C)CC)C(=O)N1C
Activity (CHO [1]): 95 | Activity (CHO [2]): 1.9 | Activity (CHO [3]): 7.5 | Activity (CHO [4]): 8.7

CC[C@@H](C)[C@H]1C(=O)N(C)CC(=O)N(C)[C@@H](C(C)C)C(=O)N(C)[C@@H](Cc2ccc(OC)cc2)C(=O)O[C@H](C)C(=O)N2CCCC[C@H]2C(=O)N(C)[C@@H](C(C)C)C(=O)N(C)[C@@H](C(C)C)C(=O)N(C)[C@H](CC(=O)OC)C(=O)N(C)[C@@H]([C@@H](C)CC)C(=O)N1C
Activity (CHO [1]): 5.5 | Activity (CHO [2]): 1.1 | Activity (CHO [3]): 1.3 | Activity (CHO [4]): 4.6

CC[C@H](C)[C@H]1C(=O)NCC(=O)N(C)[C@@H](C(C)C)C(=O)N[C@@H](Cc2ccc(OC)cc2)C(=O)O[C@H](C)C(=O)N2CCCC[C@H]2C(=O)N(C)[C@@H](C(C)C)C(=O)N[C@@H](C(C)C)C(=O)N(C)[C@@H](CC(=O)OCCC(C)C)C(=O)N(C)[C@@H]([C@@H](C)CC)C(=O)N1C
Activity (CHO [1]): 57 | Activity (CHO [2]): 1.3 | Activity (CHO [3]): 5.7 | Activity (CHO [4]): 7.8

CC[C@H](C)[C@H]1C(=O)NCC(=O)N(C)[C@@H](C(C)C)C(=O)N[C@@H](Cc2ccc(OC)cc2)C(=O)O[C@H](C)C(=O)N2CCCC[C@H]2C(=O)N(C)[C@@H](C(C)C)C(=O)N[C@@H](C(C)C)C(=O)N(C)[C@@H](CC(=O)OC2C3CC4CC(C3)CC2C4)C(=O)N(C)[C@@H]([C@@H](C)CC)C(=O)N1C (some centres not stated)
Activity (CHO [1]): 29 | Activity (CHO [2]): 1.1 | Activity (CHO [3]): 3.4 | Activity (CHO [4]): 6.1

C=CCNC(=O)C[C@@H]1C(=O)N(C)[C@@H]([C@@H](C)CC)C(=O)N(C)[C@@H]([C@H](C)CC)C(=O)NCC(=O)N(C)[C@@H](C(C)C)C(=O)N[C@@H](Cc2ccc(OC)cc2)C(=O)O[C@H](C)C(=O)N2CCCC[C@H]2C(=O)N(C)[C@@H](C(C)C)C(=O)N[C@@H](C(C)C)C(=O)N1C
Activity (CHO [1]): 67 | Activity (CHO [2]): 1.1 | Activity (CHO [3]): 5 | Activity (CHO [4]): 9.3

CC[C@@H](C)[C@H]1C(=O)NCC(=O)N(C)[C@@H](C(C)C)C(=O)N[C@@H](Cc2ccc(OC)cc2)C(=O)O[C@@H](C)C(=O)N2CCCC[C@H]2C(=O)N(C)[C@@H](C(C)C)C(=O)N[C@@H](C(C)C)C(=O)N(C)[C@H](CC(=O)NC2CCCCC2)C(=O)N(C)[C@@H]([C@@H](C)CC)C(=O)N1C
Activity (CHO [1]): 286 | Activity (CHO [2]): 72

CC[C@H](C)[C@H]1C(=O)NCC(=O)N(C)[C@@H](C(C)C)C(=O)N[C@@H](Cc2ccc(O)cc2)C(=O)O[C@H](C)C(=O)N2CCCC[C@H]2C(=O)N(C)[C@@H](C(C)C)C(=O)N[C@@H](C(C)C)C(=O)N(C)[C@@H](CC(=O)OCc2ccccc2)C(=O)N(C)[C@@H]([C@@H](C)CC)C(=O)N1C
Activity (CHO [1]): 26 | Activity (CHO [2]): 1.2 | Activity (CHO [3]): 4.4 | Activity (CHO [4]): 14

CC[C@@H](C)[C@H]1C(=O)NCC(=O)N(C)[C@@H](C(C)C)C(=O)N[C@@H](Cc2ccc(OC)cc2)C(=O)O[C@H](C)C(=O)N2CCCC[C@H]2C(=O)N(C)[C@@H](C(C)C)C(=O)N[C@@H](C(C)C)C(=O)N(C)[C@H](CC(=O)N(C)C)C(=O)N(C)[C@@H]([C@@H](C)CC)C(=O)N1C
Activity (CHO [1]): 36 | Activity (CHO [2]): 1.2 | Activity (CHO [3]): 5.9 | Activity (CHO [4]): 8.5

CC[C@@H](C)[C@H]1C(=O)NCC(=O)N(C)[C@@H](C(C)C)C(=O)N[C@@H](Cc2ccc(OC)cc2)C(=O)O[C@H](C)C(=O)N2CCCC[C@H]2C(=O)N(C)[C@@H](C(C)C)C(=O)N[C@@H](C(C)C)C(=O)N(C)[C@H](CC(=O)NC(c2ccccc2)c2ccccc2)C(=O)N(C)[C@@H]([C@@H](C)CC)C(=O)N1C
Activity (CHO [1]): 147 | Activity (CHO [2]): 6.4 | Activity (CHO [3]): 7.5 | Activity (CHO [4]): 13

CC[C@H](C)[C@H]1C(=O)NCC(=O)N(C)[C@@H](C(C)C)C(=O)N[C@@H](Cc2ccc(OC)cc2)C(=O)O[C@H](C)C(=O)N2CCCC[C@H]2C(=O)N(C)[C@@H](C(C)C)C(=O)N[C@@H](C(C)C)C(=O)N(C)[C@@H](CC(=O)NC[Si](C)(C)C)C(=O)N(C)[C@@H]([C@@H](C)CC)C(=O)N1C
Activity (CHO [1]): 163 | Activity (CHO [2]): 3.3 | Activity (CHO [3]): 6.7 | Activity (CHO [4]): 11

CC[C@H](C)[C@H]1C(=O)NCC(=O)N(C)[C@@H](C(C)C)C(=O)N[C@@H](Cc2ccc(OC(C)(C)C)cc2)C(=O)O[C@H](C)C(=O)N2CCCC[C@H]2C(=O)N(C)[C@@H](C(C)C)C(=O)N[C@@H](C(C)C)C(=O)N(C)[C@@H](CC(=O)OC(C)(C)C)C(=O)N(C)[C@@H]([C@@H](C)CC)C(=O)N1C
Activity (CHO [1]): 300 | Activity (CHO [2]): 28 | Activity (CHO [3]): 6.7 | Activity (CHO [4]): 9

CC[C@@H](C)[C@H]1C(=O)NCC(=O)N(C)[C@@H](C(C)C)C(=O)N[C@@H](Cc2ccc(OCc3ccccc3)cc2)C(=O)O[C@H](C)C(=O)N2CCCC[C@H]2C(=O)N(C)[C@@H](C(C)C)C(=O)N[C@@H](C(C)C)C(=O)N(C)[C@H](CC(=O)O)C(=O)N(C)[C@@H]([C@@H](C)CC)C(=O)N1C
Activity (CHO [1]): 2.1 | Activity (CHO [2]): 1.3 | Activity (CHO [3]): 1.1 | Activity (CHO [4]): 3.9

CC[C@H](C)[C@H]1C(=O)N(C)[C@@H]([C@@H](C)CC)C(=O)NCC(=O)N(C)[C@@H](C(C)C)C(=O)N[C@@H](Cc2ccc(OC)cc2)C(=O)O[C@H](C)C(=O)N2CCCC[C@H]2C(=O)N(C)[C@@H](C(C)C)C(=O)N[C@@H](C(C)C)C(=O)N(C)[C@H](CN(C)C(C=O)C/C=C/C(=O)OC(C)(C)C)C(=O)N1C (some centres not stated)
Activity (CHO [1]): 97 | Activity (CHO [2]): 19 | Activity (CHO [3]): 7.6 | Activity (CHO [4]): 8.7

CC[C@H](C)[C@H]1C(=O)N(C)[C@@H]([C@@H](C)CC)C(=O)NCC(=O)N(C)[C@@H](C(C)C)C(=O)N[C@@H](Cc2ccc(OC)cc2)C(=O)O[C@H](C)C(=O)N2CCCC[C@H]2C(=O)N(C)[C@@H](C(C)C)C(=O)N[C@@H](C(C)C)C(=O)N(C)[C@H](CC(=O)N2CCC[C@H]2C(=O)OC(C)(C)C)C(=O)N1C
Activity (CHO [1]): 222 | Activity (CHO [2]): 10 | Activity (CHO [3]): 6.8 | Activity (CHO [4]): 8.2

CC[C@H](C)[C@H]1C(=O)NCC(=O)N(C)[C@@H](C(C)C)C(=O)N[C@@H](CC(=O)OC)C(=O)O[C@H](C)C(=O)N2CCCC[C@H]2C(=O)N(C)[C@@H](C(C)C)C(=O)N[C@@H](C(C)C)C(=O)N(C)[C@@H](CC(=O)OC)C(=O)N(C)[C@@H]([C@@H](C)CC)C(=O)N1C
Activity (CHO [1]): 3.5 | Activity (CHO [2]): 1.1 | Activity (CHO [3]): 1.9 | Activity (CHO [4]): 5.6
